The results in this text go back to ChEMBL document CHEMBL3272124, “Synthesis of tetrazole ribonucleosides and their evaluation as antiviral agents. 2. 5-Amino-1-(beta-D-ribofuranosyl)-1H-tetrazole and 5-amino-2-(beta-D-ribofuranosyl)-2H-tetrazole” (J Med Chem, 1976).

Structures are written as SMILES. Calls of active or inactive are those of the source. No cut-off for these calls is given here.

The experiment deals with Influenza A virus. Put plainly: Antiviral activity against Influenza A virus A2/Asian/J305 infected in Swiss albino mouse assessed as increase in host survival at 50 mg/kg, ip administered as 7 doses immediately before virus inoculation and at 1, 5, 24, 30, 48 and 72 hrs after virus infection measured on 21st day post-infection. It is filed as functional, organism-based. Set-up: dose 50 mg/kg.
As for `Nc1nnnn1[C@@H]1O[C@H](CO)[C@@H](O)[C@H]1O`, the outcome was inactive. In the case of `Nc1nnn([C@@H]2O[C@H](CO)[C@@H](O)[C@H]2O)n1`, the outcome was inactive. For the molecule `NC(=O)c1ncn([C@@H]2O[C@H](CO)[C@@H](O)[C@H]2O)n1`, the result was Active.
